Earlier results as cited in patent US11450405B2, “Techniques for modeling parathyroid gland functionality and calcimimetic drug activity” (Fresenius Medical Care Holdings, Inc., priority 2018, dated 2022).
Read-outs that look alike come from different tables or passages of the source.

What was measured:
PTH concentration = conditions: after the administration of cinacalcet
[1] = for effect of hemodialysis on the pharmacokinetics: hemodialysis patients
[2] = listed as Cinacalcet hydrochloride

Structure (SMILES): C[C@@H](NCCCc1cccc(C(F)(F)F)c1)c1cccc2ccccc12 [cinacalcet]
- time after dosing at which PTH concentration reaches a minimum (PTH concentration): 2 to 3 h
- fraction of the drug in the plasma that is protein bound: Around 95%
- fraction of the drug in the plasma that is protein bound [2]: ~95%
- bio-availability on administration with food ([1]; administration with food): higher
- peak concentrations on administration with food ([1]; administration with food): higher
- total exposure values on administration with food ([1]; administration with food): higher
- time at which plasma concentration peaks ([1]; following oral administration): 2 to 6 h
- effect of hemodialysis on the pharmacokinetics [1]: negligible
- effect of hemodialysis on the pharmacokinetics [1, 2]: not altered
- higher terminal half-life values in hepatic impairment ([1]; moderate to severe hepatic impairment): 40-70%
- absolute bioavailability ([1]; oral administration): 20-25%
- absorption ([1]; oral administration): ~100%
- Bio (bioavailability), reference range ([1]; single 75 mg dose): 20-25%
- VD, reference range ([1]; single 75 mg dose): 1000 to 1250 L
- half-life of distribution t1/2^D, reference value ([1]; single 75 mg dose): 6 h
- terminal half-life, reference range ([1]; single 75 mg dose): 30 to 40 h
- tmax, reference range ([1]; single 75 mg dose): 1 to 6 h
- Cmax, mean reference value ([1]; single 75 mg dose, SD 9.4): 26.6 ng/mL
- mean apparent oral clearance rate CL/F ([1]; single 75 mg dose, SD 148): 314 L/h
- apparent oral clearance rate CL/F (target) ([1]; single oral dose of 75 mg): around 314 L/h
- apparent volume of distribution at steady state VD (target) ([1]; single oral dose of 75 mg): around 1000 L
- distribution half-life tD (target) ([1]; single oral dose of 75 mg): 6 h
- time until the maximum plasma concentration is reached (target) ([1]; single oral dose of 75 mg): around 2.3 hours
- volume of distribution at steady state ([1]; steady state): 1000 L
